Reference: patent US20090018149A1, “4,5,6,7-tetrahydrobenzo[b]thiophene derivatives and methods for medical intervention against mycobacterial infections” (priority 2002, published 2009)

Tested on: M. smegmatis expressing wildtype PknG
Assay type: cell-based, Mycobacterium smegmatis
Details: 10 μM compound, RAW cells, 24 h postinfection; mutant or vector control cleared up to 85%, wild type pknG only 25%

## NC(=O)c1c(NC(=O)C2CC2)sc2c1CCCC2 [Compound 237, 2-(Cyclopropanecarbonyl-amino)-4,5,6,7-tetrahydro-benzo[b]thiophene-3-carboxylic acid amide]
  clearance of PknG expressing M. smegmatis in macrophages: as efficient as observed with the mutant or vector control transformants
